IC50 data for 32 compounds are collected here from patent publication US20210114983A1, “Cathepsin C inhibitors” (National Institute of Biological Sciences, Beijing, priority 2018, published 2021).

Structures are written as SMILES.

The target in the experiment is rhCatC (Cathepsin C) (Homo sapiens, UniProt P53634). Kind of experiment: In Vitro CatC Enzyme Assay. It counts as biochemical. To be noted: read-out: Cat C Enzy (Cathepsin C inhibitory activity, IC50). On the procedure: In Vitro CatC Enzyme Assay
Chain of rhCatC (Cathepsin C) (P53634 25-134 limits assumed): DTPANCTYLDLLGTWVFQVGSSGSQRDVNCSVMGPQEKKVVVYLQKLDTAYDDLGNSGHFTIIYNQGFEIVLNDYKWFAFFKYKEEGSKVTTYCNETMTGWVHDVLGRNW
Chain of rhCatC (Cathepsin C) (P53634 231-394 limits assumed): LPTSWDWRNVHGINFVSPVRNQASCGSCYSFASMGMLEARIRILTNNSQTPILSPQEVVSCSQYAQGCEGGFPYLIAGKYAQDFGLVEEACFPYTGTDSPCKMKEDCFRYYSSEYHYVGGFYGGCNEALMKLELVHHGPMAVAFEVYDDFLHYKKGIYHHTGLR
Chain of rhCatC (Cathepsin C) (P53634 395-463 limits assumed): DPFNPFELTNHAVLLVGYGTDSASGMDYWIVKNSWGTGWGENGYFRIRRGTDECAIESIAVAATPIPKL
The CatC enzyme assay was performed in black 384-well plate. Firstly, rhCatC (440 nM) was activated by rhCatL (300 nM) in activation buffer (25 mM MES, 5 mM DTT, pH 6.0) at room temperature for 2 h and then activated rhCatC was diluted to 4.4 nM in assay buffer (25 mM MES, 50 mM NaCl, 5 mM DTT, 0.01% (v/v) Triton X100, pH 6.0), 14 μL activated rhCatC and 1 μL compound in 10% DMSO or 10% DMSO were incubated at room temperature for 3 h, and 5 μL substrate (Gly-Phe-AFC) was added to final concentration of 100 μM. After 60 min reaction, the product of the reaction was measured in the Enspire plate reader using Ex λ400 nm and Em λ505 nm for AFC. A standard irreversible CatC inhibitor 10 by AstraZeneca (J. Med. Chem. 2014, 57, 2357-2367) was used as an inhibitor control in the assay.

Consider `C=CC(=O)Nc1cccc(Oc2nc(Nc3ccc(N4CCN(C)CC4)cc3OC)ccc2Cl)c1` [Compound 1, N-(3-((3-chloro-6-((2-methoxy-4-(4-methylpiperazin-1-yl)phenyl)amino)pyridin-2-yl)oxy)phenyl)acrylamide], for which the IC50 is 300 to 30000 nM.
With `C=CC(=O)Nc1cccc(Oc2nc(Nc3ccc(N4CCOCC4)cc3)ccc2Cl)c1` [Compound 2, N-(3-((3-chloro-6-((4-morpholinophenyl)amino)pyridin-2-yl)oxy)phenyl)acrylamide], the IC50 lay within 300 to 30000 nM.
The same measure for `C=CC(=O)Nc1cccc(Oc2nc(Nc3ccccc3)ccc2Cl)c1` [Compound 3, N-(3-((3-chloro-6-(phenylamino)pyridin-2-yl)oxy)phenyl)acrylamide]: 300 to 30000 nM; for `C=CC(=O)Nc1cccc(Oc2nc(Nc3ccc(N4CCN(C)CC4)cc3)ccc2Cl)c1` [Compound 4, N-(3-((3-chloro-6-((4-(4-methylpiperazin-1-yl)phenyl)amino)pyridin-2-yl)oxy)phenyl)acrylamide]: 300 to 30000 nM; for `C=CC(=O)Nc1cccc(Oc2cccc(Nc3ccc(N4CCN(C)CC4)cc3)n2)c1` [Compound 5, N-(3-((6-((4-(4-methylpiperazin-1-yl)phenyl)amino)pyridin-2-yl)oxy)phenyl)acrylamide]: 300 to 30000 nM.
On to `C=CC(=O)Nc1cccc(Oc2nc(Nc3cccc(CN)c3)ccc2Cl)c1` [Compound 6, N-(3-((6-((3-(aminomethyl)phenyl)amino)-3-chloropyridin-2-yl)oxy)phenyl)acrylamide], for which the IC50 was in the range of 300 to 30000 nM.
`C=CC(=O)Nc1cccc(Oc2nc(Nc3ccc(N4CCNCC4)cc3)ccc2Cl)c1` [Compound 7, N-(3-((3-chloro-6-((4-(piperazin-1-yl)phenyl)amino)pyridin-2-yl)oxy)phenyl)acrylamide]: the IC50 lay within 300 to 30000 nM.
Consider `C/C=C/C(=O)Nc1cccc(Oc2nc(Nc3ccc(N4CCNCC4)cc3)ccc2Cl)c1` [Compound 8], for which the concentration for half-maximal inhibition (IC50) lay in the range of 300 to 30000 nM.
Consider `C=CC(=O)Nc1cccc(Oc2nc(Nc3ccc(N4CCC[C@@H](N)C4)cc3OC)ccc2Cl)c1` [Compound 9, (R)-N-(3-((6-((4-(3-aminopiperidin-1-yl)-2-methoxyphenyl)amino)-3-chloropyridin-2-yl)oxy)phenyl)acrylamide], for which the IC50 lay within 300 to 30000 nM.
Turning to `C=CC(=O)Nc1cccc(Oc2nc(Nc3ccc(CCN)cc3)ccc2Cl)c1` [Compound 10, N-(3-((6-((4-(2-aminoethyl)phenyl)amino)-3-chloropyridin-2-yl)oxy)phenyl)acrylamide], the IC50 was 300 to 30000 nM.
With `C=CC(=O)Nc1cccc(Oc2nc(Nc3ccc(N4CCN(C)CC4)c(OC)c3)ccc2Cl)c1` [Compound 11, N-(3-((3-chloro-6-((3-methoxy-4-(4-methylpiperazin-1-yl)phenyl)amino)pyridin-2-yl)oxy)phenyl)acrylamide], the IC50 was 300 to 30000 nM.
In the case of `COc1cc(N2CCN(C)CC2)ccc1Nc1ccc(Cl)c(Oc2cccc(NC(=O)C=C(C)C)c2)n1` [Compound 12, N-(3-((3-chloro-6-((2-methoxy-4-(4-methylpiperazin-1-yl)phenyl)amino)pyridin-2-yl)oxy)phenyl)-3-methylbut-2-enamide], the IC50 is 300 to 30000 nM.
In the case of `C#CC(=O)Nc1cccc(Oc2nc(Nc3ccc(N4CCN(C)CC4)cc3OC)ccc2Cl)c1` [Compound 13, N-(3-((3-chloro-6-((2-methoxy-4-(4-methylpiperazin-1-yl)phenyl)amino)pyridin-2-yl)oxy)phenyl)propiolamide], the IC50 was in the range of 300 to 30000 nM.
As for `C=CC(=O)Nc1cccc(Oc2nc(Nc3ccc(N4CCN(CC5CC5)CC4)cc3)ccc2Cl)c1` [Compound 14, N-(3-((3-chloro-6-((4-(4-(cyclopropylmethyl)piperazin-1-yl)phenyl)amino)pyridin-2-yl)oxy)phenyl)acrylamide], the IC50 lay in the range of 300 to 30000 nM.
For `C=CC(=O)Nc1cccc(Oc2nc(Nc3ccc(N4CCN(CC5CCCC5)CC4)cc3)ccc2Cl)c1` [Compound 15, N-(3-((3-chloro-6-((4-(4-(cyclopentylmethyl)piperazin-1-yl)phenyl)amino)pyridin-2-yl)oxy)phenyl)acrylamide], the IC50 is 300 to 30000 nM.
The value for `C=CC(=O)Nc1cccc(Oc2nc(Nc3ccc(N4CCN(C)CC4)cc3OC)ccc2C(F)(F)F)c1` [Compound 16, N-(3-((6-((2-methoxy-4-(4-methylpiperazin-1-yl)phenyl)amino)-3-(trifluoromethyl)pyridin-2-yl)oxy)phenyl)acrylamide] was 300 to 30000 nM; that for `C=CC(=O)Nc1cccc(Oc2nc(Nc3ccc(N4CCN(C)CC4)cc3OC)ccc2C#N)c1` [Compound 17, N-(3-((3-cyano-6-((2-methoxy-4-(4-methylpiperazin-1-yl)phenyl)amino)pyridin-2-yl)oxy)phenyl)acrylamide] was 300 to 30000 nM; that for `C=CC(=O)Nc1cc(Oc2nc(Nc3ccc(N4CCN(C)CC4)cc3OC)ccc2Cl)ccc1C` [Compound 18, N-(5-((3-chloro-6-((2-methoxy-4-(4-methylpiperazin-1-yl)phenyl)amino)pyridin-2-yl)oxy)-2-methylphenyl)acrylamide] was 300 to 30000 nM.
The same measure for `C=CC(=O)Nc1cccc(Nc2nc(Nc3ccc(N4CCN(C)CC4)cc3OC)ccc2Cl)c1` [Compound 19, N-(3-((3-chloro-6-((2-methoxy-4-(4-methylpiperazin-1-yl)phenyl)amino)pyridin-2-yl)amino)phenyl)acrylamide]: 300 to 30000 nM.
As to `C=CC(=O)Nc1cccc(Oc2nc(Nc3ccc(N4CCN(C)CC4)cc3OC)ccc2N2CCCC2)c1` [Compound 20, N-(3-((6-((2-methoxy-4-(4-methylpiperazin-1-yl)phenyl)amino)-3-(pyrrolidin-1-yl)pyridin-2-yl)oxy)phenyl)acrylamide], the IC50 lay within 3 to 300 nM.
As for `C=CC(=O)Nc1cccc(Oc2cccc(Nc3ccc(N4CCN(C)CC4)cc3OC)n2)c1` [Compound 21, N-(3-((6-((2-methoxy-4-(4-methylpiperazin-1-yl)phenyl)amino)pyridin-2-yl)oxy)phenyl)acrylamide], the IC50 is 300 to 30000 nM.
For `C=CC(=O)Nc1cccc(Oc2nc(Nc3ccc(N4CCN(C)CC4)cc3OC)ccc2N(C)C)c1` [Compound 22, N-(3-((3-(dimethylamino)-6-((2-methoxy-4-(4-methylpiperazin-1-yl)phenyl)amino)pyridin-2-yl)ox)phenyl)acrylamide], the IC50 fell in the range of 300 to 30000 nM.
The value for `C#Cc1ccc(Nc2ccc(N3CCN(C)CC3)cc2OC)nc1Oc1cccc(NC(=O)C=C)c1` [Compound 23, N-(3-((3-ethynyl-6-((2-methoxy-4-(4-methylpiperazin-1-yl)phenyl)amino)pyridin-2-yl)oxy)phenyl)acrylamide] was 300 to 30000 nM; that for `C=CC(=O)Nc1cccc(N(C)c2cccc(Nc3ccc(N4CCN(C)CC4)cc3OC)n2)c1` [Compound 24, N-(3-((6-((2-methoxy-4-(4-methylpiperazin-1-yl)phenyl)amino)pyridin-2-yl)(methyl)amino)phenyl)acrylamide] was 300 to 30000 nM.
For `C=CC(=O)Nc1cccc(N(Cc2ccccc2)c2cccc(Nc3ccc(N4CCN(C)CC4)cc3OC)n2)c1` [Compound 25, N-(3-(benzyl(6-((2-methoxy-4-(4-methylpiperazin-1-yl)phenyl)amino)pyridin-2-yl)amino)phenyl)acrylamide], the IC50 lay within 300 to 30000 nM.
Consider `C=CC(=O)Nc1cccc(Oc2nc(N(C)c3ccc(N4CCNCC4)cc3)ccc2Cl)c1` [Compound 26], for which the IC50 was in the range of 300 to 30000 nM.
For `C=CC(=O)Nc1cccc(Oc2nc(N(Cc3ccccc3)c3ccc(N4CCNCC4)cc3)ccc2Cl)c1` [Compound 27, N-(3-((6-(benzyl(4-(piperazin-1-yl)phenyl)amino)-3-chloropyridin-2-yl)oxy)phenyl)acrylamide], the IC50 was 300 to 30000 nM.
Regarding `C=CC(=O)Nc1cc(Oc2nc(Nc3ccc(N4CCN(C)CC4)cc3OC)ccc2N2CCCC2)ccc1C` [Compound 29, N-(5-((6-((2-methoxy-4-(4-methylpiperazin-1-yl)phenyl)amino)-3-(pyrrolidin-1-yl)pyridin-2-yl)oxy)-2-methylphenyl)acrylamide], the IC50 was in the range of 3 to 300 nM.
Turning to `C=CC(=O)Nc1cc(Oc2nc(Nc3ccc(N4CCN(C)CC4)cc3OC)ccc2N2CCOCC2)ccc1C` [Compound 30, N-(5-((6-((2-methoxy-4-(4-methylpiperazin-1-yl)phenyl)amino)-3-morpholinopyridin-2-yl)oxy)-2-methylphenyl)acrylamide], the IC50 was in the range of 3 to 300 nM.
Consider `C=CC(=O)Nc1cc(Oc2nc(Nc3ccc(N4CCN(C)CC4)cc3OC)ccc2N2CCC(O)C2)ccc1C` (centres unmarked) [Compound 31, N-(5-((3-(3-hydroxypyrrolidin-1-yl)-6-((2-methoxy-4-(4-methylpiperazin-1-yl)phenyl)amino)pyridin-2-yl)oxy)-2-methylphenyl)acrylamide], for which the IC50 lay within 3 to 300 nM.
The same measure for `C=CC(=O)Nc1cc(Oc2nc(Nc3ccc(N4CCN(C)CC4)cc3OC)ccc2N2CCCC(O)C2)ccc1C` (centres unmarked) [Compound 32, N-(5-((3-(3-hydroxypiperidin-1-yl)-6-((2-methoxy-4-(4-methylpiperazin-1-yl)phenyl)amino)pyridin-2-yl)oxy)-2-methylphenyl)acrylamide]: 3 to 300 nM; for `C=CC(=O)Nc1cc(Oc2nc(Nc3ccc(N4CCN(C)CC4)cc3OC)ccc2N2CCN(C)CC2)ccc1C` [Compound 33, N-(5-((6-((2-methoxy-4-(4-methylpiperazin-1-yl)phenyl)amino)-3-(4-methylpiperazin-1-yl)pyridin-2-yl)oxy)-2-methylphenyl)acrylamide]: 3 to 300 nM.
